Residues, ends and D or L forms follow the SMILES beside them.
| melting point [°C] | SMILES |
| --- | --- |
| 125 | O=C1Nc2ccc(I)cc2C1=NNC(=O)C1CCN(Cc2cccnc2)CC1 |
| 100 to 103 | C[N+](C)([O-])c1ccc(/C=C/c2c(F)cccc2F)cc1 |
| 100 to 102 | CC(C)NCC(O)COc1cccc2nsnc12 (stereo unspecified) |
| 185 to 186 | CC(=O)NC(C)C(=O)NC(C)C(=O)NC(CC(C)C)C(=O)O (stereo not drawn) (Ac-Ala-Ala-Leu-OH; configuration not given here) |
| 176 to 177 | CC(=O)Nc1cc(C(C)(C)CC(C)(C)C)ccc1O |
| 161 | Cc1c(N2CCC(N(C)Cc3ccccc3)C2)c(F)cc2c(=O)c(C(=O)O)cn(C3CC3)c12 (stereo unspecified) |
| 151 to 152 | COc1ccc(CN(Cc2ccco2)S(=O)(=O)c2ccc(C(=O)O)cc2)cc1 |
| 190 to 191 | O=C(OCc1ccccc1)N1CCc2c(sc3nc(CN4C(=O)CCC4=O)c(Cl)c(-c4ccc(OCC(F)(F)F)cc4)c23)C1 |
| 178 to 180 | CCOC(=O)c1cn(-c2nc(NC(C)(C)CC(C)(C)C)ccc2F)c2c(Cl)c(F)c(F)cc2c1=O |
| 166 to 168 | O=C1c2ccccc2CN1CCN1CCC(c2noc3cc(F)ccc23)CC1 |
| 162 | CCCCCCc1ccc(C(=O)Oc2ccc(C(=O)O)cc2)cc1 |
| 90 to 91 | CC(=O)OCC1OC(n2c(Cl)nc3cc(F)c(F)cc32)C(OC(C)=O)C1OC(C)=O (stereo unspecified) |
| 61 to 62 | COCCNCCc1ccc(Nc2ncc3c(n2)-c2ccccc2C(c2ccccc2C(F)(F)F)C3)cc1 (stereo unspecified) |
| 175 | CCOc1ccc2c(c1)n(-c1ccccn1)c(=O)n2S(=O)(=O)c1ccc([N+](=O)[O-])cc1OC |
| 162 to 164 | COc1ccc2cc(CCc3ccc(OCC(O)CNC(C)C)c(OC)c3)n(C)c(=O)c2c1 (stereo unspecified) |
| 252 to 253 | CS(=O)(=O)OCc1ccc(-c2nnc3n2-c2cccnc2Nc2ccccc2-3)cc1 |
| 186 | COc1cc(O)nc(C2CC2)n1 |
| 181 | CCOC(=O)c1c(N2CCNCC2)c2cc(C)ccc2n(-c2ccccc2)c1=O |
| 160 to 162 | Cc1oc(-c2ccco2)nc1CCOc1ccc(CC2SC(=O)NC2=O)cn1 (stereo unspecified) |
| 109 to 111 | O=C1Oc2ccccc2C1c1ccccc1 (stereo unspecified) |
| 67 to 72 | CCCCCCO[C@H](C)C(=O)Oc1ccc(C(=O)O)cc1 |
| 218 to 219 | CC(=O)NN=Cc1ccc2ccccc2n1 |
| 111 to 113 | CSc1nnc(C(C)C2CC2)c(=O)n1N (stereo unspecified) |
| 223 to 225 | CN(C)C(=O)c1cc2c(nc(C(F)(F)F)n2C)c2c1CCC(c1ccccc1)O2 (stereo unspecified) |
| 168 | Fc1cccc(F)c1-c1nnc(-c2ccccc2Br)nn1 |

The remaining lines, values behind:

| SMILES | melting point [°C] |
| --- | --- |
| CCc1noc(-c2ncn(-c3cccc(OC)c3)c2COC)n1 | 66 to 68 |
| O=S1(=O)NCN(C2CC2)c2c(F)cc(F)c(F)c21 | 149 to 151 |
| O=c1[nH]c(=O)n(Cc2ccc(Oc3ccc(Cn4oc(=O)[nH]c4=O)cc3)cc2)o1 | 175 to 178 |
| CCOCc1nc2c(N)nc3cc(OCc4cccc(OC)c4)ccc3c2n1CC(C)(C)NS(C)(=O)=O | 221 to 222 |
| CC1N=C(c2ccccc2F)c2cc(C#N)ccc2NC1=O (stereo unspecified) | 216 |
| CCc1cnc2c(NC(=O)c3c(Cl)cccc3Cl)cccc2c1CCO | 180 to 182 |
| CCOC(=O)CC1(O)C(=O)Nc2ccc(F)cc21 (stereo unspecified) | 133 to 135 |
| CCn1cccc1C(N)=S | 71.5 to 74.5 |
| O=C1NCC(C(F)(F)F)C(=O)N1c1ccccc1 (stereo unspecified) | 215 to 216 |
| CS(=O)(=O)c1ccc(-c2cnn(CC(F)(F)F)c(=O)c2OC2CCCCC2)cc1 | 129 to 130 |
| COc1ccc2cc(N(C(C)=O)c3ccc(O)cc3)ccc2c1 | 187 to 188 |
| CNCC1Cc2cc(F)cc(-c3ccccc3C)c2O1 (stereo unspecified) | 123 to 124 |
| CC[C@@H]1N(c2ccc(C#N)c(Cl)c2C)C(=O)C[C@]1(C)O | 156 to 158 |
| COC1=CC(=O)C=C(Br)C1=O | 157 to 158 |
| O=C1c2ccccc2C(=O)N1OCc1cn(C(c2ccccc2)(c2ccccc2)c2ccccc2)nn1 | 195 to 200 |
| CCCCCCCCCCCCCCCCCC1OCC(COC(O)CCC)O1 (stereo unspecified) | 34 to 44 |
| COc1cc(OC)cc(C(NCC(=O)Nc2c(C(C)C)cccc2C(C)C)c2ccccc2)c1 (stereo unspecified) | 111 to 112 |
| CC1CC2C3CC(F)C4=CC(=O)C=CC4(C)C3C(O)CC2(C)C1C(=O)COC(=O)CCC(=O)O (stereo unspecified) | 212 to 214 |
| OCCN(Cc1ccccc1)c1nc2ccccc2s1 | 95 to 96 |
| Cc1cc(C#N)cnc1N | 198 to 200 |
| CCc1c(N2CCC(C(N)c3ccccn3)C2)c(F)c(N)c2c(=O)c(C(=O)O)cn(C3CC3F)c12 (stereo unspecified) | 127 to 129 |
| Cc1cc2cnn(CCO)c2cc1Nc1nnc2n1[C@H](c1ccc(F)cc1)COC2 | 215 to 217 |
| CCOC(=O)c1cc(-n2c(=O)cc[nH]c2=O)ccc1Cl | 170 to 172 |

| SMILES | melting point [°C] |
| --- | --- |
| CCOC(=O)c1cnc(CCOC)nc1O | 115 to 118 |
| CCCC1COC(Cn2cncn2)(c2ccc(Oc3ccccc3)cc2)O1 (stereo unspecified) | 68.5 to 71 |
| CCCc1c(OCCCOc2ccc(C(=O)O)cc2Br)ccc(C(C)=O)c1OC(C)=O | 125 to 127 |
| COc1ccc(C2=NN(Cc3ccncc3)C(=O)[C@H]3CCCC[C@@H]23)cc1OC (relative stereo) | 87 to 89 |
| O=C(O)c1ccccc1C(=O)Nc1ccc2c(=O)n3c(nc2c1)C(=Cc1ccccc1)CC3 | > 300 |
| COC(=O)c1ccc2c(nnn2C)c1C(=O)OC | 146 to 147 |
| O=S(=O)(c1cc(-c2ccc(F)cc2)c(-c2ccc(F)cc2)s1)C(F)(F)F | 104 to 106 |
| CCNC1CC=C(c2c[nH]c3ccc([N+](=O)[O-])cc23)CC1 (stereo unspecified) | 177 to 179 |
| Cc1nc2c(NCc3c(C)cccc3C)cc(C(=O)N(C)C)cc2[nH]1 | 203 |
| CN(CCOc1ccc(C=O)cc1)C(=O)OC(C)(C)C | 62 to 65 |
| CCc1nc2nc3cc(Cl)ccc3nc2n1C(=O)c1ccccc1Br | 130 to 132 |
| O=Cc1cc(Br)c(Cl)cc1[N+](=O)[O-] | 81 to 82 |
| Fc1ccccc1NC(=S)N1CCN(c2cnccn2)CC1 | 151 to 153 |
| CS(=O)(=O)c1ccc(-c2cnc(N(Cc3ccc(C(F)(F)P(=O)(O)O)c(Cl)c3)c3ccc(Cl)c(Cl)c3)o2)cc1 | 141 to 143 |
| COC(=O)CCCc1cc2cc(Cl)ccc2n1S(=O)(=O)c1cccc2nsnc12 | 123 to 126 |
| Cc1cc(C)nc(N(C=S)c2ccccc2)n1 | 161 to 165 |
| CCCCC1Cc2c(n(-c3ccc(F)cc3)c3ncccc3c2=O)O1 (stereo unspecified) | 243 to 245 |
| CC(C)CCN1C(=O)C(NC(=O)Oc2cccc(N(C)C)c2)C(=O)N(c2ccccc2)c2ccc(Cl)cc21 (stereo unspecified) | 199 to 200 |
| O=C1CCc2ccc(O)c(c2)Oc2ccc(cc2)C=CCO1 | 148 to 151 |
| O=C1CN=C(c2ccccc2F)c2cc(Cl)ccc2N1CC(O)CO (stereo unspecified) | 117 to 118 |
| CC(C)C(=O)N1C(=O)C2C=CC1C2 (stereo unspecified) | 41 to 42 |
| NNc1cccc(-c2ccccn2)n1 | 69 to 70 |
| O=C(O)CCc1cc2cc(Cl)ccc2n1S(=O)(=O)c1cccc(C(F)(F)F)c1 | 203 to 206 |
